{"source": "ChEMBL document CHEMBL5518240", "about": "(J Med Chem, 2024)", "key": {"[1]": {"target": "T1, Protein cereblon/Histone acetyltransferase p300 (Homo sapiens, UniProt Q09472+Q96SW2)", "T1 sequence (Q09472 2-2414 limits assumed)": "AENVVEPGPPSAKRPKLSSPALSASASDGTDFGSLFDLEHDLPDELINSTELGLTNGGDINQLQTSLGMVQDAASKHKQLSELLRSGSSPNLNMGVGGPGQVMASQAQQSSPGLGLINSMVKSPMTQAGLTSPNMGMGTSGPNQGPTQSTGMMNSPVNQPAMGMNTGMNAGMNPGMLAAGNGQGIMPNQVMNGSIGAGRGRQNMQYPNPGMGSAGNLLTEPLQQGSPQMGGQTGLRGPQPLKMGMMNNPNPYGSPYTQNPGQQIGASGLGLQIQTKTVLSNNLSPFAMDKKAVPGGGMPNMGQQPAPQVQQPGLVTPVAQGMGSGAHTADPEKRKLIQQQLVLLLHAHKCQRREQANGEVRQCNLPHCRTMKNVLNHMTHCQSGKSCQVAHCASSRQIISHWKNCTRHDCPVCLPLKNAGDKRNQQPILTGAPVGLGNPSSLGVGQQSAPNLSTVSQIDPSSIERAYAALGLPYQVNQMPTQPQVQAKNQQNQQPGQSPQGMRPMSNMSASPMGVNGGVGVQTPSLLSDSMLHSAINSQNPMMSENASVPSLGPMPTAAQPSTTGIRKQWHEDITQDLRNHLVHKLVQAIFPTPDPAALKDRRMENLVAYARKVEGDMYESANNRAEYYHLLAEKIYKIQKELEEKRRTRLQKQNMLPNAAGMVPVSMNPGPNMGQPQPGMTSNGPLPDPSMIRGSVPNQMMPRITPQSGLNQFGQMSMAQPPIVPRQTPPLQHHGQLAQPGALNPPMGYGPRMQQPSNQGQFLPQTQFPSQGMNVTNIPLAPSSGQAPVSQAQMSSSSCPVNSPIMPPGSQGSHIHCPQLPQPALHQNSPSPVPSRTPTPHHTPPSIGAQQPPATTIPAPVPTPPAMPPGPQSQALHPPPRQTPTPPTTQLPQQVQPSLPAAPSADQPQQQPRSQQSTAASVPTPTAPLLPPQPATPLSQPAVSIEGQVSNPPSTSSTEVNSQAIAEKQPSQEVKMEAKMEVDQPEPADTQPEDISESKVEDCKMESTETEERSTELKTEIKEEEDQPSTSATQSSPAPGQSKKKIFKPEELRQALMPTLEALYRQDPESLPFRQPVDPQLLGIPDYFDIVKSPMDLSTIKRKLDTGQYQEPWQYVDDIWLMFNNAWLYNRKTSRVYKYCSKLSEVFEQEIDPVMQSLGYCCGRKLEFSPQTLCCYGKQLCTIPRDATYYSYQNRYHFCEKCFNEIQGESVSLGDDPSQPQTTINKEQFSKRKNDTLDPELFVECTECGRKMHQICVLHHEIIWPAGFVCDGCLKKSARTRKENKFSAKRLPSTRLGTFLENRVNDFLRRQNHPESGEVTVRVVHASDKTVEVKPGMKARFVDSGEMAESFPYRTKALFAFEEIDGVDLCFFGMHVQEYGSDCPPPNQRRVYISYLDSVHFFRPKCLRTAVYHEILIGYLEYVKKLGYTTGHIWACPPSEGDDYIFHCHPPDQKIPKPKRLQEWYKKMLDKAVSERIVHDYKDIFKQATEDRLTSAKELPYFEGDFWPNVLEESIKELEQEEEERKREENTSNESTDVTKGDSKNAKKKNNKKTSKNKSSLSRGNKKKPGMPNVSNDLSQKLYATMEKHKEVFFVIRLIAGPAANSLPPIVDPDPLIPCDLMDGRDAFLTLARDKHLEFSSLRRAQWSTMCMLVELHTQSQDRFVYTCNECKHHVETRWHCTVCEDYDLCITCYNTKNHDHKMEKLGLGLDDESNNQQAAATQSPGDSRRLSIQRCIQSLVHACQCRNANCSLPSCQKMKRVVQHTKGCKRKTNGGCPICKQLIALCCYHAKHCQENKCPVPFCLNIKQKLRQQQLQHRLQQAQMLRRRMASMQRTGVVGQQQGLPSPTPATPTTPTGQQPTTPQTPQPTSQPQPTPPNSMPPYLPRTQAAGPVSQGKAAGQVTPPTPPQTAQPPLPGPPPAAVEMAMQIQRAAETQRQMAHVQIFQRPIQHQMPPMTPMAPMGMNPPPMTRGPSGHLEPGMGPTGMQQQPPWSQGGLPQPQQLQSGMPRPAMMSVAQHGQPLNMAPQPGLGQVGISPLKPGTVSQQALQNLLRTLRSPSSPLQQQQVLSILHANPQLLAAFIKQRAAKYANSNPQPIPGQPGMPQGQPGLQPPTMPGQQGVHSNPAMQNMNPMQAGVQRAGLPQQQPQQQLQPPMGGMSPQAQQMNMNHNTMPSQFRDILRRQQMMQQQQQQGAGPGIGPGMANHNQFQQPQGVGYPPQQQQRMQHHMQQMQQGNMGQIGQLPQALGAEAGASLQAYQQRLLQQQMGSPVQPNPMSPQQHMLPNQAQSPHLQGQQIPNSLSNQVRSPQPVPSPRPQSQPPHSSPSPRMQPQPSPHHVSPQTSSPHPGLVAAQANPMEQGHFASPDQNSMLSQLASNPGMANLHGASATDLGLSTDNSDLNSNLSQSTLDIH", "T1 sequence (Q96SW2 whole entry partner)": "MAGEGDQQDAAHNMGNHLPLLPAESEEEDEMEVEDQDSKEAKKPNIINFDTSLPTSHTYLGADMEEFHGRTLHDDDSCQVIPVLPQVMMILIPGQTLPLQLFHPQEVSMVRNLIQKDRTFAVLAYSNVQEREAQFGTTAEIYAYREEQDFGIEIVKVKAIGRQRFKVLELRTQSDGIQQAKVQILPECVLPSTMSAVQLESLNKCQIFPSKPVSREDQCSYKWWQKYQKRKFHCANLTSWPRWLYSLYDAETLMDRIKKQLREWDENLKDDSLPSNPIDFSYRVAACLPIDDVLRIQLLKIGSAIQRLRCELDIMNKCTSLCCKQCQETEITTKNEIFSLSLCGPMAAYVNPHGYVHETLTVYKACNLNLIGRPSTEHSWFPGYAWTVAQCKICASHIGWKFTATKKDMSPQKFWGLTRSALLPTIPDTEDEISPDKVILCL", "test": "PROTAC activity at p300/CRBN in AR positive human VCaP cells assessed as maximal protein degradation at 0.46 nM incubated for 4 hrs by Western blot analysis relative to control", "assay_type": "cell-based"}, "[2]": {"test": "Apparent permeability coefficient across apical to basolateral side in human Caco-2 cells at 10 uM incubated for 120 mins by LC-MS/MS analysis", "assay_type": "ADME, cell-based", "settings": "caco-2, 2 h"}, "VCaP [3]": {"system": "VCaP", "test": "Reduction in KLK3 gene expression in AR positive human VCaP cells assessed as reduction in mRNA level measured after 6 hrs by qRT-PCT analysis relative to control", "assay_type": "functional, cell-based", "settings": "dose 0.1-1000 nM"}, "[4]": {"test": "Apparent permeability coefficient across basolateral to apical side in human Caco-2 cells at 10 uM incubated for 120 mins by LC-MS/MS analysis", "assay_type": "ADME, cell-based", "settings": "caco-2, 2 h"}, "LNCaP [5]": {"system": "LNCaP", "test": "Antiproliferative activity against AR positive human LNCaP cells assessed inhibition of cell growth measured after 4 days by CellTiter-Glo Luminescent cell viability assay", "assay_type": "functional, cell-based", "settings": "96 h"}, "[6]": {"target": "T2, Protein cereblon/CREB-binding protein (Homo sapiens, UniProt Q92793+Q96SW2)", "test": "PROTAC activity at CBP/CRBN in AR positive human VCaP cells assessed as maximal protein degradation at 37 nM incubated for 4 hrs by Western blot analysis relative to control", "assay_type": "cell-based"}, "[7]": {"test": "Drug exposure in CB17 SCID mouse xenografted with human VCaP cells assessed compound concentration in tumor at 3 mg/kg, po measured after 3 hrs by LC-MS/MS analysis", "assay_type": "ADME, organism-based, Neoplasm", "settings": "read-out: Drug uptake"}, "CWR22R [8]": {"system": "CWR22R", "test": "Potency index, ratio of ARV-110 IC50 to test compound IC50 for antiproliferative activity against AR positive human 22Rv1 cells assessed inhibition of cell growth measured after 4 days by CellTiter-Glo Luminescent cell viability assay", "assay_type": "functional", "settings": "time 4 day"}, "CWR22R [9]": {"system": "CWR22R", "test": "Effect on other proteins on global level in human 22Rv1 cells at 100 nM incubated for 4 hrs by multiplexed quantitative proteomics analysis relative to control", "assay_type": "functional, cell-based"}, "[10]": {"target": "T1, Protein cereblon/Histone acetyltransferase p300", "test": "PROTAC activity at p300/CRBN in AR positive human VCaP cells assessed as maximal protein degradation at 0.15 nM incubated for 4 hrs by Western blot analysis relative to control", "assay_type": "cell-based"}, "[11]": {"target": "T1, Protein cereblon/Histone acetyltransferase p300", "test": "PROTAC activity at p300/CRBN in AR positive human VCaP cells assessed as maximal protein degradation at 111 nM incubated for 4 hrs by Western blot analysis relative to control", "assay_type": "cell-based"}, "CWR22R [12]": {"system": "CWR22R", "test": "Reduction in AR gene expression in AR positive human 22Rv1 cells assessed as reduction in mRNA level measured after 6 hrs by qRT-PCT analysis relative to control", "assay_type": "functional, cell-based", "settings": "dose 0.1-1000 nM"}, "LNCaP [13]": {"system": "LNCaP", "test": "Reduction in KLK3 gene expression in AR positive human LNCaP cells assessed as reduction in mRNA level measured after 6 hrs by qRT-PCT analysis relative to control", "assay_type": "functional, cell-based", "settings": "dose 0.1-1000 nM"}, "VCaP [14]": {"system": "VCaP", "test": "Potency index, ratio of ARV-110 IC50 to test compound IC50 for antiproliferative activity against AR positive human VCaP cells assessed inhibition of cell growth measured after 4 days by CellTiter-Glo Luminescent cell viability assay", "assay_type": "functional", "settings": "time 4 day"}, "VCaP [15]": {"system": "VCaP", "test": "Reduction in AR gene expression in AR positive human VCaP cells assessed as reduction in mRNA level measured after 6 hrs by qRT-PCT analysis relative to control", "assay_type": "functional, cell-based", "settings": "dose 0.1-1000 nM"}, "VCaP [16]": {"system": "VCaP", "test": "Antitumor activity against human VCaP cells xenografted in CB17 SCID mouse model assessed as tumor growth inhibition at 0.3 mg/kg, po qd scheduled 5 days in a week measured on day 63", "assay_type": "functional", "settings": "1512 h, time 63 day, read-out: TGI"}, "[17]": {"target": "T1, Protein cereblon/Histone acetyltransferase p300", "test": "PROTAC activity at p300/CRBN in human 22Rv1 cells assessed as reduction in protein level at 100 nM incubated for 4 hrs by multiplexed quantitative proteomics analysis relative to control", "assay_type": "cell-based", "set-up": "scale not given: the % may be the effect or the level left"}, "VCaP [18]": {"system": "VCaP", "test": "Potency index, ratio of GNE-049 IC50 to test compound IC50 for antiproliferative activity against AR positive human VCaP cells assessed inhibition of cell growth measured after 4 days by CellTiter-Glo Luminescent cell viability assay", "assay_type": "functional", "settings": "time 4 day"}, "[19]": {"target": "T2, Protein cereblon/CREB-binding protein", "test": "In vivo PROTAC activity at CBP/CRBN in human VCaP cells xenografted in SCID mouse assessed as reduction in CBP protein at 1 mg/kg, po measured after 24 hrs", "assay_type": "functional, organism-based", "set-up": "scale not given: the % may be the effect or the level left"}, "[20]": {"target": "T2, Protein cereblon/CREB-binding protein", "test": "In vivo PROTAC activity at p300/CRBN in human VCaP cells xenografted in CB17 SCID mouse assessed as reduction in CBP protein at 1 mg/kg, po measured after 3 hrs", "assay_type": "functional, organism-based", "set-up": "scale not given: the % may be the effect or the level left"}, "[21]": {"test": "Reduction in KLK3 gene expression in AR positive human LNCaP cells assessed as reduction in mRNA level at 10 nM measured after 6 hrs by qRT-PCT analysis relative to control", "assay_type": "functional"}, "[22]": {"test": "Efflux ratio of apparent permeability coefficient across basolateral to apical side over apical to basolateral side in human Caco-2 cells at 10 uM incubated for 120 mins by LC-MS/MS analysis", "assay_type": "ADME, cell-based", "settings": "caco-2, 2 h"}, "[23]": {"target": "T1, Protein cereblon/Histone acetyltransferase p300", "test": "PROTAC activity at p300/CRBN in human 22Rv1 cells assessed as maximal protein degradation at 1 uM incubated for 4 hrs by Western blot analysis relative to control", "assay_type": "cell-based"}, "[24]": {"test": "Toxicity in CB17 SCID mouse xenografted with human VCaP cells assessed as signs of toxicity at 0.3 to 1 mg/kg, po qd scheduled 5 days in a week measured on day 63", "assay_type": "organism-based", "settings": "in vivo, 120 h, dose 0.3-1 mg/kg, time 5 day"}, "VCaP [25]": {"system": "VCaP", "test": "Antitumor activity against human VCaP cells xenografted in CB17 SCID mouse model assessed as tumor growth inhibition at 1 mg/kg, po qd scheduled 5 days in a week measured on day 63", "assay_type": "functional", "settings": "1512 h, time 63 day, read-out: TGI"}, "[26]": {"target": "T2, Protein cereblon/CREB-binding protein", "test": "PROTAC activity at CBP/CRBN in AR positive human VCaP cells assessed as maximal protein degradation at 333.3 nM incubated for 4 hrs by Western blot analysis relative to control", "assay_type": "cell-based"}, "[27]": {"target": "T1, Protein cereblon/Histone acetyltransferase p300", "test": "PROTAC activity at p300/CRBN in human VCaP cells assessed as maximal protein degradation at 1 uM incubated for 4 hrs by Western blot analysis relative to control", "assay_type": "cell-based"}, "[28]": {"test": "Plasma concentration in CB17 SCID mouse xenografted with human VCaP cells at 1 mg/kg, po measured after 3 hrs by LC-MS/MS analysis", "assay_type": "ADME, organism-based"}, "[29]": {"target": "T2, Protein cereblon/CREB-binding protein", "test": "PROTAC activity at CBP/CRBN in AR positive human VCaP cells assessed as maximal protein degradation at 12.3 nM incubated for 4 hrs by Western blot analysis relative to control", "assay_type": "cell-based"}, "[30]": {"target": "T2, Protein cereblon/CREB-binding protein", "test": "PROTAC activity at CBP/CRBN in AR positive human VCaP cells assessed as maximal protein degradation at 4.1 nM incubated for 4 hrs by Western blot analysis relative to control", "assay_type": "cell-based"}, "[31]": {"test": "Reduction in c-Myc gene expression in AR positive human VCaP cells assessed as reduction in mRNA level at 1 nM measured after 6 hrs by qRT-PCT analysis relative to control", "assay_type": "functional"}, "[32]": {"test": "Toxicity in CB17 SCID mouse xenografted with human VCaP cells assessed as weight loss at 0.3 to 1 mg/kg, po qd scheduled 5 days in a week measured on day 63", "assay_type": "organism-based", "settings": "in vivo, 1512 h, dose 0.3-1 mg/kg, time 63 day"}}, "note": "pIC50: −log10 of the molar value. Active and inactive are the calls of the source. The rule behind the calls is not given here."}
{"compound": "CC(=O)N1CCc2c(c(N3CCCc4cc(-c5cnn(C)c5)c(C(F)F)cc43)nn2[C@H]2CC[C@H](CN3CCN(c4ccc5c(c4)C(=O)N(C4CCC(=O)NC4=O)C5=O)CC3)CC2)C1", "note": "(some centres not stated)", "values": [{"measurement": "Activity", "setting": "[1]", "value": 80, "unit": "%"}, {"measurement": "Papp", "setting": "[2]", "value": "2.8 10^-6 cm/s"}, {"measurement": "inhibition", "setting": "VCaP [3]", "value": "Dose-Dependent Effect"}, {"measurement": "Papp", "setting": "[4]", "value": "2.3 10^-6 cm/s"}, {"measurement": "pIC50", "setting": "LNCaP [5]", "value": 8.80}, {"measurement": "Activity", "setting": "[6]", "value": 98, "unit": "%"}, {"measurement": "concentration at 3 h", "setting": "[7]", "value": 141, "unit": "ng/mL"}, {"measurement": "Ratio IC50", "setting": "CWR22R [8]", "value": ">50"}, {"measurement": "Activity", "setting": "CWR22R [9]", "value": "inactive"}, {"measurement": "Activity", "setting": "[10]", "value": 50, "unit": "%"}, {"measurement": "Activity", "setting": "[11]", "value": 100, "unit": "%"}, {"measurement": "inhibition", "setting": "CWR22R [12]", "value": "Dose-Dependent Effect"}, {"measurement": "inhibition", "setting": "LNCaP [13]", "value": "Dose-Dependent Effect"}, {"measurement": "Ratio IC50", "setting": "VCaP [14]", "value": ">50"}, {"measurement": "inhibition", "setting": "VCaP [15]", "value": "Dose-Dependent Effect"}, {"measurement": "inhibition in vivo at 0.3 mg/kg", "setting": "VCaP [16]", "value": 73, "unit": "%"}, {"measurement": "Activity", "setting": "[17]", "value": 79, "unit": "%"}, {"measurement": "Ratio IC50", "setting": "VCaP [18]", "value": 100}, {"measurement": "Activity", "setting": "[19]", "value": "> 95", "unit": "%"}, {"measurement": "Activity", "setting": "[20]", "value": "> 95", "unit": "%"}, {"measurement": "inhibition at 0.01 µM", "setting": "[21]", "value": 70, "unit": "%"}, {"measurement": "Ratio", "setting": "[22]", "value": 1.2}, {"measurement": "Emax", "setting": "[23]", "value": 91, "unit": "%"}, {"measurement": "Activity", "setting": "[24]", "value": "Non-Toxic"}, {"measurement": "inhibition in vivo at 1 mg/kg", "setting": "VCaP [25]", "value": 87, "unit": "%"}, {"measurement": "Activity", "setting": "[26]", "value": 78, "unit": "%"}, {"measurement": "Emax", "setting": "[27]", "value": "> 95", "unit": "%"}, {"measurement": "concentration at 3 h", "setting": "[28]", "value": 95, "unit": "ng/mL"}, {"measurement": "Activity", "setting": "[29]", "value": 98, "unit": "%"}, {"measurement": "Activity", "setting": "[30]", "value": 97, "unit": "%"}, {"measurement": "inhibition at 0.001 µM", "setting": "[31]", "value": "> 95", "unit": "%"}, {"measurement": "Activity", "setting": "[32]", "value": "Non-Toxic"}]}
